# Laboratory results: US20260274838A1 (PURDUE RESEARCH FOUNDATION, priority 2023, published 2026)
# “Also recorded” adds a separate entry of the source.
# How the values were obtained:
# hSTING = biological target: T1, hSTING (Homo sapiens, UniProt Q86WV6); experiment: STING based fluorescence polarization assay (F-c-di-GMP probe displacement); format: binding; conditions: 20 μM compound, 50 nM probe, 10 μM STING, 5 minutes; compared to HSD1077
# T1 construct: SUMO; made in house; host or cells: E. coli Rosetta 2 (pLysS)
# Procedure: As a preliminary screen, 20 μM of compounds and 50 nM of the probe were incubated with 10 μM of STING for 5 minutes prior to evaluation of fluorescence anisotropy.
# 50 nM of 2′-Fluo-AHC-c-diGMP (Biolog) was incubated with 10 μM hSTING and 20 μM of screening compounds in dimethyl sulfoxide (DMSO) for 5 minutes in 1× Phosphate buffered saline at room temperature. […] Anisotropy was normalized via equating measurements with 0 μM hSTING to zero. […] Anisotropy was converted to a fraction bound by F-c-di-GMP using the following equation: […]
# wherein r refers to the anisotropy value at 10 μM hSTING concentration upon compound addition, rfree refers to the anisotropy value of unbound fluorophore, and Q refers to the ratio of fluorescence intensities between bound and free fluorophore.
# THP-1 dual cells = experiment: Detection of IRF activation in THP-1 dual reporter cells (Lucia luciferase, QUANTI-Luc), cGAMP stimulation; conditions: then 2'-3' cGAMP 24 hours
# Procedure: Using THP-1 dual cell lines (Invivogen) featuring a luciferase gene under the control of an ISG54 inducible promoter, relative quantifications of type 1 interferon expression could be achieved through luciferase detection upon cGAS-STING pathway induction.
# 1×10^5 cells were seeded in 96 well plates and incubated for 24 hours. After which, cells were pre-treated with the drug compound for 1 hour, followed by 100 μM of 2′-3′ cGAMP for induction of the cGAS-STING pathway, and incubated for 24 hours. After which, cell suspension from each respective well was collected and for relative quantification of IRF activation via Lucia luciferase based luminescent assay via QUANTI-Luc™ reagent (Invivogen). 10 μL of the cell suspension obtained in each individual well was added to 50 μL of QUANTI-Luc™ Solution. […] Experiments were performed in biological triplicates, with data reported as the mean and standard deviation of 3 data points.
# RAW ISG Blue cells = experiment: Detection of IRF activation in RAW ISG Blue reporter cells (SEAP, QUANTI-Blue); format: cell-based, murine
# Text: To understand possible modulatory effects of compound HSD1077 on the cGAS-STING axis, the quantification of type 1 interferon expression in-cellulo upon compound HSD1077 treatment, investigated via a commercially available murine macrophage cell line RAW ISG Blue, which express secreted embryonic alkaline phosphatase (SEAP) under the control of an interferon-stimulated gene 54 (ISG54), inducible promoter. Upon the stimulation of pathways, such as cGAS-STING, which activate type 1 interferon production, SEAP would be expressed and can be quantified using a chromogenic detection substrate Quantiblue™. […] Excitedly, concentrations as low as 20 nM caused a noticeable decrease in interferon expression (FIG. 8).
# After which, media from each respective well was collected for estimation of IRF activation via SEAP colorimetric assay via QUANTI-blue reagent (Invivogen) as per manufacturer protocols, using a clear 96 well flat bottom plate. 20 μL of the media obtained in each individual well was incubated with 180 μL of QUANTI-Blue™ Solution for 6 hours at 37° C. Absorbance (630 nm) of each well was quantified via Biotek Cytation 5 multi-mode reader.
# RAW ISG Blue macrophages = experiment: Interferon-β mRNA levels in RAW cells via qPCR; format: cell-based, murine; conditions: pre-treatment 6 hours, then 100 μM cGAMP 3 hours; vs DMSO-treated cells stimulated with cGAMP
# Procedure: FIG. 8B illustrates RAW ISG cells were pre-treated with either compound HSD1077 or compound H-151 as a positive control for 6 hours and subsequently stimulated with 100 μM of cGAMP for 3 hours for induction of Interferon-β. mRNA levels were quantified by RT-PCR. Gene expression was normalized with β-actin. Experiments were performed in two biological replicates. Error bars indicate the error of the mean of two independent experiments.
# As a secondary analysis, mRNA levels of murine Interferon-β were also quantified via quantitative PCR (qPCR), upon cGAMP stimulation on RAW macrophages with or without compound HSD1077 pre-treatment.
# 1×10^6 cells were seeded in 6 well plates and incubated for 24 hours to allow for adherence. […] Cells were subsequently harvested, and RNA extraction was performed via the use of TRIzol reagent (Thermo-fisher). 1 μg of RNA harvested from each sample was used for cDNA synthesis using random hexamers, dNTPs, and superscript II reverse transcriptase (Thermo-fisher). […] The forward and reverse primers for the relative quantification of Interferon-β and β-actin were used as reported in Wiser C, Science Reports, 2020, 10, 1-11 and Wang M, ACS Chemical Biology, 2021, 16, 1663-1670, which are hereby specifically incorporated by reference for its teachings regarding the same.
# Raw ISG cells = experiment: Western blotting of p-STING and p-IRF3 in Raw ISG cells; format: cell-based, murine; conditions: 5 μM for 4 hours, then 100 μM cGAMP 3 hours; vs DMSO+cGAMP
# T1 sequence (Q86WV6 whole entry H232R): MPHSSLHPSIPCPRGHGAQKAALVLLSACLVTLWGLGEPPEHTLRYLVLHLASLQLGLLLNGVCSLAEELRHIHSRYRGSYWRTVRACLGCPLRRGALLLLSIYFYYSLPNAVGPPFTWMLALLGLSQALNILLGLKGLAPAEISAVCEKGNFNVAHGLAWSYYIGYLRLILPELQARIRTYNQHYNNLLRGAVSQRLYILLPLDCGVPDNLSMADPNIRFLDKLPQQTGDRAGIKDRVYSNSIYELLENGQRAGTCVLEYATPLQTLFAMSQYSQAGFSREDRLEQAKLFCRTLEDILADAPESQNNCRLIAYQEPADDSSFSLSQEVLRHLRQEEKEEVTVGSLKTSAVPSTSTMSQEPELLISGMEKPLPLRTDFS
Compound,"STING binding (fraction of F-c-di-GMP probe bound, Fbound), in words (hSTING)",other results
"c1n[nH]cc1-c1nc2ccc3c(c2c2c1CCCC2)OCO3 [Compound 3, 7-(1H-pyrazol-4-yl)-8,9,10,11-tetrahydro-[1,3]dioxolo[4,5-a]phenanthridine]",significant decrease in STING binding,–
"O=C1c2ccccc2C(=O)N1C1CCc2c(c(-c3cn[nH]c3)nc3ccc4[nH]ncc4c23)C1 (stereo not drawn) [Compound 16, 2-(7-(1H-pyrazol-4-yl)-8,9,10,11-tetrahydro-3H-pyrazolo[4,3-a]phenanthridin-9-yl)isoindoline-1,3-dione]",not well tolerated,–
c1n[nH]cc1-c1nc2ccc3[nH]ncc3c2c2c1CCC2 [Compound 10],reduced STING binding,–
"7-(1H-pyrazol-4-yl)-8,9,10,11-tetrahydro-3H-imidazo[4,5-a]phenanthridine [Compound 17]",not well tolerated,–
"CC(=O)N1CCN(C(=O)c2ccc(-c3nc4ccc5[nH]ncc5c4c4c3CCCC4)cc2)CC1 [Compound 22, 1-(4-(4-(8,9,10,11-tetrahydro-3H-pyrazolo[4,3-a]phenanthridin-7-yl)benzoyl)piperazin-1-yl)ethan-1-one]",reduced binding capabilities,–
"COc1cc2nc(-c3cn[nH]c3)c3c(c2cc1OC)CCCC3 [Compound 2, 2,3-Dimethoxy-6-(1H-pyrazol-4-yl)-7,8,9,10-tetrahydrophenanthridine]",significant decrease in STING binding,–
"CN1CCN(C(=O)c2ccc(-c3nc4c(F)cc5[nH]ncc5c4c4c3CCCC4)cc2)CC1 [Compound 26, (4-(5-fluoro-8,9,10,11-tetrahydro-3H-pyrazolo[4,3-a]phenanthridin-7-yl)phenyl) (4-methylpiperazin-1-yl)methanone]",negatively affected STING binding,–
CN1CCN(C(=O)c2ccc(-c3nc4ccc5[nH]ncc5c4c4c3CCCCC4)cc2)CC1 [Compound 23],negatively impacted STING binding,–
"Cn1cc(-c2nc3ccc4[nH]ncc4c3c3c2CCCC3)cn1 [Compound 20, 7-(1-Methyl-1H-pyrazol-4-yl)-8,9,10,11-tetrahydro-3H-pyrazolo[4,3-a]phenanthridine]",reduced binding capabilities,–
"CN1CCN(C(=O)c2ccc(-c3nc4ccc5[nH]ncc5c4c4c3CCC4)cc2)CC1 [Compound 24, (4-methylpiperazin-1-yl) (4-(3,8,9,10-tetrahydrocyclopenta[c]pyrazolo[4,3-f]quinolin-7-yl)phenyl)methanone]",negatively impacted STING binding,–
"(2-fluoro-4-(8,9,10,11-tetrahydro-3H-pyrazolo[4,3-a]phenanthridin-7-yl)phenyl) (4-methylpiperazin-1-yl)methanone [Compound 27]",negatively affected STING binding,–
"Cn1ncc2c3c4c(c(-c5cn[nH]c5)nc3ccc21)CCCC4 [Compound 7, 3-Methyl-7-(1H-pyrazol-4-yl)-8,9,10,11-tetrahydro-3H-pyrazolo[4,3-a]phenanthridine]",poor STING binder,–
"CN1CCN(C(=O)c2ccc(-c3nc4ccc5[nH]ncc5c4c4c3CCCC4)c(F)c2)CC1 [Compound 28, (3-fluoro-4-(8,9,10,11-tetrahydro-3H-pyrazolo[4,3-a]phenanthridin-7-yl)phenyl) (4-methylpiperazin-1-yl)methanone]",generally retained STING binding,–
"CCn1nc(C)cc1C(=O)Nc1nc2cc(C(N)=O)cc(OC)c2n1C/C=C/Cn1c(NC(=O)c2cc(C)nn2CC)nc2cc(C(N)=O)cc(OCCCN3CCOCC3)c21 [DIABZI-3, reference compound]",high probe displacement,–
"c1n[nH]cc1-c1nc2ccc3[nH]ncc3c2c2c1CCCC2 [HSD1077, 7-(1H-pyrazol-4-yl)-8,9,10,11-tetrahydro-3H-pyrazolo[4,3-a]phenanthridine]",–,"type 1 interferon expression after pre-treatment and cGAMP stimulation (THP-1 dual cells): can suppress type-1 interferon expression; also recorded: reduced type 1 interferon expression in a dose-dependent manner; also recorded: attenuated expression of interferon in a dose-dependent manner; type 1 interferon production on treatment with compound alone (agonism) (RAW ISG Blue cells; 24 hours, no cGAMP): did not induce type 1 interferon production; also recorded: non-significant changes in interferon expression levels; type 1 interferon expression after pre-treatment and cGAMP induction (RAW ISG Blue cells; pre-treatment (1 μM or lower) 2 hours, then 100 μM 2'-3' cGAMP 24 hours): can suppress type-1 interferon expression; also recorded: dose-dependent attenuation in type 1 interferon expression; also recorded: attenuated expression of type 1 interferon in a dose-dependent manner; concentration causing a noticeable decrease in interferon expression (RAW ISG Blue cells; pre-treatment before cGAMP): ≤ 20 nM; murine Interferon-β mRNA levels (RAW ISG Blue macrophages): dose-dependent reduction in murine Interferon-β levels; phospho-IRF3 level (Raw ISG cells): decreased levels; also recorded: attenuates; phospho-STING level (Raw ISG cells): decreased levels; also recorded: attenuates"
"CCc1cc(-c2cn[nH]c2)nc2ccc3[nH]ncc3c12 [Compound 9, 9-Ethyl-7-(1H-pyrazol-4-yl)-3H-pyrazolo[4,3-f]quinoline]",reduced STING binding,–
"c1cc(-c2nc3ccc4[nH]ncc4c3c3c2CCCC3)n[nH]1 [Compound 19, 7-(1H-pyrazol-3-yl)-8,9,10,11-tetrahydro-3H-pyrazolo[4,3-a]phenanthridine]",significant decrease in STING binding,–
"CN1CCN(C(=O)c2ccc(-c3nc4ccc5[nH]ncc5c4c4c3CCCC4)cc2)CC1 [Compound 21, (4-methylpiperazin-1-yl) (4-(8,9,10,11-tetrahydro-3H-pyrazolo[4,3-a]phenanthridin-7-yl)phenyl)methanone]",reduced binding capabilities,–
